US20260199323A1, “LIGAND COMPOUNDS FOR E3 UBIQUITIN LIGASE, PROTEIN DEGRADERS DEVELOPED ON BASIS OF LIGAND COMPOUNDS, AND USES THEREOF” (GLUETACS THERAPEUTICS (SHANGHAI) CO., LTD., priority 2021, published 2026)
pIC50: −log10 of the molar value.

Assays:
[1] = tested on: Kasumi-1; assay: CCK-8 tumor cell proliferation, Kasumi-1; assay type: cell-based, Human; conditions: 72 h
How it was run: (§1)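 Viability determined colorimetrically with CCK-8 following compound treatment. Dosing began 24 h post-plating using ten 5-fold dilutions capped at 10 μM; growth-inhibition curves yielded IC50.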

[2] = tested on: K562; assay: CCK-8 tumor cell proliferation, K562; parameters: species or system Human; conditions: Table 13, designed based on BCR-ABL inhibitors; 72 h
Protocol: (§2) The tumor cells used herein were cultured in a cell culture medium listed in table 4 at 37° C. in an incubator with 5% CO2. Prior to experimentation, all cells used were correctly identified by STR profiling, and tested negative for mycoplasma through routine screenings.
(§3) IC50 values of the compounds of the present disclosure (including the compounds in Tables 1 and 3, and compounds of examples) were measured using the Meilun Cell Counting Kit-8 kit from Dalian Meilun Biotech Co., Ltd. Assay details are as follows: tumor cells were seeded in a 96-well plate at a density listed in Table 5. After 24 h, 100 μL of the inoculated cells were treated with 0.5 μL of the compounds of the present disclosure (including the compounds in Tables 1 and 3, and compounds of examples) at 10 different successively decreasing concentrations (starting at the highest concentration of 10 μM; 5-fold serial dilutions). After the cells were treated with the compounds of the present disclosure for a period of time, the cell viability detection reagent was added to the culture medium for cell viability assessment according to the instructions provided with the CCK-8 kit. […] The growth inhibition of the compounds of the present disclosure on cells was plotted by Prism Graphpad software, and the IC50 values of the compounds of the present disclosure were calculated therefrom.

[3] = tested on: Mino; assay: CCK-8 tumor cell proliferation, Mino; assay type: cell-based, Human; conditions: Table 13, designed based on BCR-ABL inhibitors; 72 h
How it was run: as §1

[4] = tested on: Ramos; assay: CCK-8 tumor cell proliferation, Ramos; conditions: Homo sapiens, Table 9, designed based on SHP2 inhibitors, 72 h, read-out: IC50 for inhibiting the proliferation of tumor cells, Ramos
Protocol: as §2, §3

[5] = tested on: MM.1S; assay: CCK-8 tumor cell proliferation, MM.1S; assay type: cell-based; conditions: Table 6, designed based on STAT3 inhibitors; 72 h
How it was run: as §1

[6] = tested on: CCRF-CEM; assay: CCK-8 tumor cell proliferation, CCRF-CEM; assay type: cell-based, Human; parameters: IC50 for inhibiting the proliferation of tumor cells, CCRF-CEM: scale not given here; conditions: 96 h
How it was run: as §1

[7] = tested on: T47D; assay: CCK-8 tumor cell proliferation, T47D; assay type: cell-based, Human; conditions: Table 6, designed based on STAT3 inhibitors; 96 h
Protocol: as §2, §3

[8] = tested on: SNU-182; assay: CCK-8 tumor cell proliferation, SNU-182; parameters: species or system Human; conditions: Table 6, designed based on STAT3 inhibitors; 96 h
Protocol: as §2, §3

[9] = tested on: Daudi; assay: CCK-8 tumor cell proliferation, Daudi; parameters: species or system Human; conditions: Table 13, designed based on BCR-ABL inhibitors; 96 h
Protocol: as §2, §3

[10] = tested on: CAL-62; assay: CCK-8 tumor cell proliferation, CAL-62; assay type: cell-based, Human; parameters: IC50 for inhibiting the proliferation of tumor cells, CAL-62: scale not given here; conditions: Table 13, designed based on BCR-ABL inhibitors; 72 h
How it was run: as §1

[11] = tested on: SR; assay: CCK-8 tumor cell proliferation, SR; assay type: cell-based, Human; conditions: Table 14, designed based on CDK4/6 inhibitors; 72 h
How it was run: as §1

[12] = tested on: SK-OV-3; assay: CCK-8 tumor cell proliferation, SK-OV-3; conditions: Table 14, designed based on CDK4/6 inhibitors
Protocol: as §3

[13] = tested on: SU-DHL-6; assay: CCK-8 tumor cell proliferation, SU-DHL-6; assay type: cell-based, Human; conditions: Table 14, designed based on CDK4/6 inhibitors; 72 h
How it was run: as §1

[14] = tested on: HGC-27; assay: CCK-8 tumor cell proliferation, HGC-27; assay type: cell-based, Human; conditions: Table 14, designed based on CDK4/6 inhibitors; 96 h
How it was run: as §1

[15] = tested on: TMD8; assay: CCK-8 tumor cell proliferation, TMD8; parameters: species or system Human; conditions: Table 13, designed based on BCR-ABL inhibitors; 72 h
Protocol: as §2, §3

[16] = Table 13, designed based on BCR-ABL inhibitors
[17] = Table 6, designed based on STAT3 inhibitors

## Cc1nc(Nc2ncc(C(=O)Nc3c(C)cccc3Cl)s2)cc(N2CCN(Cc3ccc4c(c3)CN(C3CCC(=O)NC3=O)C4=O)CC2)n1 (stereo not shown) [GT-03215, N-(2-chloro-6-methylphenyl)-2-((6-(4-((2-(2,6-dioxopiperidin-3-yl)-1-oxoisoindolin-5-yl)methyl)piperazin-1-yl)-2-methylpyrimidin-4-yl)amino)thiazole-5-carboxamide]
[1]; [16]
  IC50 for inhibiting the proliferation of tumor cells, Kasumi-1: A+
[2]
  IC50 for inhibiting the proliferation of tumor cells, K562: A+
[3]
  IC50 for inhibiting the proliferation of tumor cells, Mino: A+

## CC1(N)CCN(c2cnc(-c3cccc(Cl)c3Cl)c(N)n2)CC1 [GT-03334]
[4]
  pIC50: < 5.00

## C[C@@H]1OCC2(CCN(c3cnc(Sc4ccnc(N)c4Cl)c(N)n3)CC2)[C@@H]1N [GT-03335]
[4]
  pIC50: < 5.00

## CC1(N)CCN(c2cnc3c(-c4cccc(Cl)c4Cl)n[nH]c3n2)CC1 [GT-03336]
[4]
  pIC50: < 5.00

## O=C1CCC(N2Cc3cc(CNC(=O)c4cc5c(o4)C(=O)c4ccccc4C5=O)ccc3C2=O)C(=O)N1 (stereo not shown) [GT-03383, N-((2-(2,6-dioxopiperidin-3-yl)-1-oxoisoindolin-5-yl)methyl)-4,9-dioxo-4,9-dihydronaphtho[2,3-b]furan-2-carboxamide]
[1]; [17]
  IC50 for inhibiting the proliferation of tumor cells, Kasumi-1: A+
[5]
  IC50 for inhibiting the proliferation of tumor cells, MM.1S: A+
[6]; [17]
  IC50 for inhibiting the proliferation of tumor cells, CCRF-CEM: A+
[7]
  IC50 for inhibiting the proliferation of tumor cells, T47D: A+
[8]
  IC50 for inhibiting the proliferation of tumor cells, SNU-182: A+

## Cc1ccc(C(=O)Nc2ccc(CN3CCN(Cc4ccc5c(c4)CN(C4CCC(=O)NC4=O)C5=O)CC3)c(C(F)(F)F)c2)cc1C#Cc1cnc2cccnn12 (stereo not shown) [GT-03804, N-(4-((4-((2-(2,6-dioxopiperidin-3-yl)-1-oxoisoindolin-5-yl)methyl)piperazin-1-yl)methyl)-3-(trifluoromethyl)phenyl)-3-(imidazo[1,2-b]pyridazin-3-ylethynyl)-4-methylbenzamide]
[1]; [16]
  IC50 for inhibiting the proliferation of tumor cells, Kasumi-1: A+
[9]
  IC50 for inhibiting the proliferation of tumor cells, Daudi: A+
[10]
  IC50 for inhibiting the proliferation of tumor cells, CAL-62: A+
[2]
  IC50 for inhibiting the proliferation of tumor cells, K562: A+
[6]; [16]
  IC50 for inhibiting the proliferation of tumor cells, CCRF-CEM: A+
[3]
  IC50 for inhibiting the proliferation of tumor cells, Mino: A+

## Cc1ccc(C(=O)Nc2ccc(N3CCN(Cc4ccc5c(c4)CN(C4CCC(=O)NC4=O)C5=O)CC3)c(C(F)(F)F)c2)cc1C#Cc1cnc2cccnn12 (stereo not shown) [GT-03805, N-(4-(4-((2-(2,6-dioxopiperidin-3-yl)-1-oxoisoindolin-5-yl)methyl)piperazin-1-yl)-3-(trifluoromethyl)phenyl)-3-(imidazo[1,2-b]pyridazin-3-ylethynyl)-4-methylbenzamide]
[2]
  IC50 for inhibiting the proliferation of tumor cells, K562: A+
[6]; [16]
  IC50 for inhibiting the proliferation of tumor cells, CCRF-CEM: A+

## Cc1nc2c(F)cc(-c3nc(Nc4ccc(N5CCC(N6CCN(Cc7cccc8c7CN(C7CCC(=O)NC7=O)C8=O)CC6)CC5)cn4)ncc3F)cc2n1C(C)C (stereo not shown) [GT-03903, 3-(4-((4-(1-(6-((5-fluoro-4-(4-fluoro-1-isopropyl-2-methyl-1H-benzo[d]imidazol-6-yl)pyrimidin-2-yl)amino)pyridin-3-yl)piperidin-4-yl)piperazin-1-yl)methyl)-1-oxoisoindolin-2-yl)piperidine-2,6-dione]
[11]
  IC50 for inhibiting the proliferation of tumor cells, SR: A+
[12]
  IC50 for inhibiting the proliferation of tumor cells, SK-OV-3: A+
[6]; Table 14, designed based on CDK4/6 inhibitors
  IC50 for inhibiting the proliferation of tumor cells, CCRF-CEM: A+
[13]
  IC50 for inhibiting the proliferation of tumor cells, SU-DHL-6: A+
[14]
  IC50 for inhibiting the proliferation of tumor cells, HGC-27: A+

## Cc1ccc(NC(=O)c2ccc(CN(C)Cc3ccc4c(c3)CN(C3CCC(=O)NC3=O)C4=O)cc2)cc1Nc1nccc(-c2cccnc2)n1 (stereo not shown) [GT-03990, 4-((((2-(2,6-dioxopiperidin-3-yl)-1-oxoisoindolin-5-yl)methyl)(methyl)amino)methyl)-N-(4-methyl-3-((4-(pyridin-3-yl)pyrimidin-2-yl)amino)phenyl)benzamide]
[15]
  IC50 for inhibiting the proliferation of tumor cells, TMD8: A+
